Results as given in patent publication US20260176320A1, “MODULATORS OF G-PROTEIN COUPLED RECEPTORS” (priority 2018, published 2026).
Like-named read-outs stand apart in the source and are kept apart here.

Tests used:
Assay type in all cases: cell-based
GLP-1R [1] = biological target: T1, GLP-1R (Homo sapiens, UniProt P43220); experiment: HitHunter cAMP assay (GLP-1R); settings: cAMP; for Emax: read-out: (Emax) GLP-1R; for EC50: read-out: EC50 GLP-1R/nM
In short: (§1)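 cAMP, luminescence read: agonist 22-pt 2× dilution in DMSO, duplicate, 30 min RT on 10,000 cells/well in 1×HBSS/10 mM HEPES/625 μM IBMX/0.2% BSA; anti-cAMP reagent 1 h RT dark, then O/N RT dark before read.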

GIP-R = biological target: T2, GIP-R (Homo sapiens, UniProt P48546); experiment: HitHunter cAMP assay (GIP-R); settings: cAMP; for EC50: read-out: EC50 GIP-R/nM; for Emax: read-out: (Emax) GIP-R
T2 sequence (P48546 22-466): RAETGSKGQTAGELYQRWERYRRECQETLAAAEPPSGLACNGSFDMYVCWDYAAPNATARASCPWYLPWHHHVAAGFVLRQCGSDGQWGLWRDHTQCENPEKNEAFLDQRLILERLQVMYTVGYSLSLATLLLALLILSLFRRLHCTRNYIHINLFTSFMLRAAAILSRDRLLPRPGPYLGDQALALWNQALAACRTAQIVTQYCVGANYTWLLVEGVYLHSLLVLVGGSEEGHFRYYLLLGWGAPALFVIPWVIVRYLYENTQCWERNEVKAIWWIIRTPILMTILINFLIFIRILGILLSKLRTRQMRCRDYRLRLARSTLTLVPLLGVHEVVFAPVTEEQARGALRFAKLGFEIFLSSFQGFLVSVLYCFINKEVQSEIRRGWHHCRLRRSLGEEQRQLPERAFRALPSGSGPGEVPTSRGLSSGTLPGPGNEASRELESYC
In short: as §1

GLP-1R [2] = biological target: T1, GLP-1R; experiment: PathHunter β-arrestin assay; settings: PathHunter β-arrestin assay; read-out: β-arrestin activity EC50
In short: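 Luminescence read-out of β-arrestin recruitment (enzyme-fragment complementation detection, 3 h at room temperature in the dark) after 90 min agonist stimulation at 37 °C. Agonists tested as 22-point 2× serial dilutions in duplicate, in medium containing 0.2% BSA.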

T1 sequence (P43220 24-463): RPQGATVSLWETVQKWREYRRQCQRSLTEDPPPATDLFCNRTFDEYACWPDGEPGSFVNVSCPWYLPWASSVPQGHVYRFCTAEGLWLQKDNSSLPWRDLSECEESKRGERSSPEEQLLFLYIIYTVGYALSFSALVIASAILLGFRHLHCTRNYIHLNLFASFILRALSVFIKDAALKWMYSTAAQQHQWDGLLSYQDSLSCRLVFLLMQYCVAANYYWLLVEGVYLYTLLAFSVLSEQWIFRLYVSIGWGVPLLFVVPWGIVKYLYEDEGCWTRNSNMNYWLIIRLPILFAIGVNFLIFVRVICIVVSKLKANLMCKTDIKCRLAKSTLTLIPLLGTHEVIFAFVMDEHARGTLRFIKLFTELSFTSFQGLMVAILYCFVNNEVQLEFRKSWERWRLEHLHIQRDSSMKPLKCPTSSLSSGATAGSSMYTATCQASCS

| Compound | Emax (GLP-1R [1]; Table 3) [%] | EC50 (GLP-1R [1]; Table 3) [nM] | Emax (GLP-1R [1]; Table 3A) [%] | EC50 (GLP-1R [1]; Table 3A) [nM] | EC50 (GIP-R; Table 3) [nM] | EC50 (GIP-R; Table 3A) [nM] | Emax at 1 µM (GIP-R; read-out: (Emax) GIP-R at 1 μM, Table 3, at 1 μM) [%] | EC50 (GLP-1R [2]) [nM] | Emax (GIP-R; Table 3A) [%] | Emax (GIP-R; Table 3) [%] |
| --- | --- | --- | --- | --- | --- | --- | --- | --- | --- | --- |
| CC[C@H](C)[C@H](NC(=O)[C@H](CO)NC(=O)[C@H](Cc1ccc(O)cc1)NC(=O)[C@H](CC(=O)O)NC(=O)[C@H](CO)NC(=O)[C@@H](NC(=O)[C@H](Cc1ccccc1)NC(=O)[C@@H](NC(=O)CNC(=O)[C@H](CCC(=O)O)NC(=O)c1ccc(C(=O)NCCN2C(=O)CSC2=O)cc1)[C@@H](C)O)[C@@H](C)O)C(=O)N[C@@H](Cc1ccc(O)cc1)C(=O)N[C@@H](CC(C)C)C(=O)N[C@@H](CC(=O)O)C(=O)N[C@@H](CCCCN)C(=O)N[C@@H](CCC(N)=O)C(=O)N[C@@H](C)C(=O)N[C@@H](C)C(=O)NC(C)(C)C(=O)N[C@@H](CCC(=O)O)C(=O)N[C@@H](Cc1ccccc1)C(=O)N[C@H](C(=O)N[C@@H](CC(N)=O)C(=O)N[C@@H](Cc1c[nH]c2ccccc12)C(=O)N[C@@H](CC(C)C)C(=O)N[C@@H](CC(C)C)C(=O)N[C@@H](C)C(=O)NCC(=O)NCC(=O)N1CCC[C@H]1C(=O)N[C@@H](CO)C(=O)N[C@@H](CO)C(=O)NCC(=O)N[C@@H](C)C(=O)N1CCC[C@H]1C(=O)N1CCC[C@H]1C(=O)N1CCC[C@H]1C(=O)N[C@@H](CO)C(=O)N[C@@H](CCCCN)C(N)=O)C(C)C [Compound 186] | 94 | 1 to 10 | 94 | 1 to 10 | > 1000 | > 1000 | 4 | > 1000 | – | – |
| CCCCCCCCCCCCCCCC(=O)N[C@@H](CCC(=O)NCCCC[C@H](NC(=O)[C@H](CO)NC(=O)[C@@H]1CCCN1C(=O)[C@@H]1CCCN1C(=O)[C@@H]1CCCN1C(=O)[C@H](C)NC(=O)CNC(=O)[C@H](CO)NC(=O)[C@H](CO)NC(=O)[C@@H]1CCCN1C(=O)CNC(=O)CNC(=O)[C@H](C)NC(=O)[C@H](CC(C)C)NC(=O)[C@H](CC(C)C)NC(=O)[C@H](Cc1c[nH]c2ccccc12)NC(=O)[C@H](CC(N)=O)NC(=O)[C@@H](NC(=O)[C@H](Cc1ccccc1)NC(=O)[C@H](CCC(=O)O)NC(=O)C(C)(C)NC(=O)[C@H](C)NC(=O)[C@H](C)NC(=O)[C@H](CCC(N)=O)NC(=O)[C@H](CCCCN)NC(=O)[C@H](CC(=O)O)NC(=O)[C@H](CC(C)C)NC(=O)[C@H](Cc1ccc(O)cc1)NC(=O)[C@@H](NC(=O)[C@H](CO)NC(=O)[C@H](Cc1ccc(O)cc1)NC(=O)[C@H](CC(=O)O)NC(=O)[C@H](CO)NC(=O)[C@@H](NC(=O)[C@H](Cc1ccccc1)NC(=O)[C@@H](NC(=O)CNC(=O)[C@H](CCC(=O)O)NC(=O)[C@@H](C)NC(=O)CCN1CCCCC1=O)[C@@H](C)O)[C@@H](C)O)[C@@H](C)CC)C(C)C)C(N)=O)C(=O)O [Compound 214] | – | – | 95 | < 0.1 | – | 1 to 10 | – | 10 to 1000 | 45 | – |
| CCCCCCCCCCCCCCCC(=O)NCCCC[C@H](NC(=O)[C@H](CO)NC(=O)[C@@H]1CCCN1C(=O)[C@@H]1CCCN1C(=O)[C@@H]1CCCN1C(=O)[C@H](C)NC(=O)CNC(=O)[C@H](CO)NC(=O)[C@H](CO)NC(=O)[C@@H]1CCCN1C(=O)CNC(=O)CNC(=O)[C@H](C)NC(=O)[C@H](CC(C)C)NC(=O)[C@H](CC(C)C)NC(=O)[C@H](Cc1c[nH]c2ccccc12)NC(=O)[C@H](CC(N)=O)NC(=O)[C@@H](NC(=O)[C@H](Cc1ccccc1)NC(=O)[C@H](CCC(=O)O)NC(=O)C(C)(C)NC(=O)[C@H](C)NC(=O)[C@H](C)NC(=O)[C@H](CCC(N)=O)NC(=O)[C@H](CCCCN)NC(=O)[C@H](CC(=O)O)NC(=O)[C@H](CC(C)C)NC(=O)[C@H](Cc1ccc(O)cc1)NC(=O)[C@@H](NC(=O)[C@H](CO)NC(=O)[C@H](Cc1ccc(O)cc1)NC(=O)[C@H](CC(=O)O)NC(=O)[C@H](CO)NC(=O)[C@@H](NC(=O)[C@H](Cc1ccccc1)NC(=O)[C@@H](NC(=O)CNC(=O)[C@H](CCC(=O)O)NC(=O)CSCC(=O)NCCN1C(=O)CSC1=O)[C@@H](C)O)[C@@H](C)O)[C@@H](C)CC)C(C)C)C(N)=O [Compound 60] | 98 | 0.1 to 1 | 98 | 0.1 to 1 | 1 to 10 | 1 to 10 | – | > 1000 | 37 | 37 |
| CCCCCCCCCCCCCCCC(=O)N[C@@H](CCC(=O)NCCCC[C@H](NC(=O)[C@H](CO)NC(=O)[C@@H]1CCCN1C(=O)[C@@H]1CCCN1C(=O)[C@@H]1CCCN1C(=O)[C@H](C)NC(=O)CNC(=O)[C@H](CO)NC(=O)[C@H](CO)NC(=O)[C@@H]1CCCN1C(=O)CNC(=O)CNC(=O)[C@H](C)NC(=O)[C@H](CC(C)C)NC(=O)[C@H](CC(C)C)NC(=O)[C@H](Cc1c[nH]c2ccccc12)NC(=O)[C@H](CC(N)=O)NC(=O)[C@@H](NC(=O)[C@H](Cc1ccccc1)NC(=O)[C@H](CCC(=O)O)NC(=O)C(C)(C)NC(=O)[C@H](C)NC(=O)[C@H](C)NC(=O)[C@H](CCC(N)=O)NC(=O)[C@H](CCCCN)NC(=O)[C@H](CC(=O)O)NC(=O)[C@H](CC(C)C)NC(=O)[C@H](Cc1ccc(O)cc1)NC(=O)[C@@H](NC(=O)[C@H](CO)NC(=O)[C@H](Cc1ccc(O)cc1)NC(=O)[C@H](CC(=O)O)NC(=O)[C@H](CO)NC(=O)[C@@H](NC(=O)[C@H](Cc1ccccc1)NC(=O)[C@@H](NC(=O)CNC(=O)[C@H](CCC(=O)O)NC(=O)CSCC(=O)NCCN1CCCS1(=O)=O)[C@@H](C)O)[C@@H](C)O)[C@@H](C)CC)C(C)C)C(N)=O)C(=O)O [Compound 42] | 102 to 109 | < 1 | 102 to 109 | < 1 | 0.1 to 10 | 0.1 to 100 | – | > 1000 | 28 to 46 | 28 to 46 |
| CCCCCCCCCCCCCCCC(=O)N[C@@H](CCC(=O)NCCCC[C@H](NC(=O)[C@H](CO)NC(=O)[C@@H]1CCCN1C(=O)[C@@H]1CCCN1C(=O)[C@@H]1CCCN1C(=O)[C@H](C)NC(=O)CNC(=O)[C@H](CO)NC(=O)[C@H](CO)NC(=O)[C@@H]1CCCN1C(=O)CNC(=O)CNC(=O)[C@H](C)NC(=O)[C@H](CC(C)C)NC(=O)[C@H](CC(C)C)NC(=O)[C@H](Cc1c[nH]c2ccccc12)NC(=O)[C@H](CC(N)=O)NC(=O)[C@@H](NC(=O)[C@H](Cc1ccccc1)NC(=O)[C@H](CCC(=O)O)NC(=O)C(C)(C)NC(=O)[C@H](C)NC(=O)[C@H](C)NC(=O)[C@H](CCC(N)=O)NC(=O)[C@H](CCCCN)NC(=O)[C@H](CC(=O)O)NC(=O)[C@H](CC(C)C)NC(=O)[C@H](Cc1ccc(O)cc1)NC(=O)[C@@H](NC(=O)[C@H](CO)NC(=O)[C@H](Cc1ccc(O)cc1)NC(=O)[C@H](CC(=O)O)NC(=O)[C@H](CO)NC(=O)[C@@H](NC(=O)[C@H](Cc1ccccc1)NC(=O)[C@@H](NC(=O)CNC(=O)[C@H](CCC(=O)O)NC(=O)CCCC(=O)NCCN1CCCCC1=O)[C@@H](C)O)[C@@H](C)O)[C@@H](C)CC)C(C)C)C(N)=O)C(=O)O [Compound 27] | 95 | 0.1 to 1 | 95 | 0.1 to 1 | 1 to 10 | 1 to 10 | – | > 1000 | 45 | 45 |
| CCCCCCCCCCCCCCCC(=O)N[C@@H](CCC(=O)NCCCC[C@H](NC(=O)[C@H](CO)NC(=O)[C@@H]1CCCN1C(=O)[C@@H]1CCCN1C(=O)[C@@H]1CCCN1C(=O)[C@H](C)NC(=O)CNC(=O)[C@H](CO)NC(=O)[C@H](CO)NC(=O)[C@@H]1CCCN1C(=O)CNC(=O)CNC(=O)[C@H](C)NC(=O)[C@H](CC(C)C)NC(=O)[C@H](CC(C)C)NC(=O)[C@H](Cc1c[nH]c2ccccc12)NC(=O)[C@H](CC(N)=O)NC(=O)[C@@H](NC(=O)[C@H](Cc1ccccc1)NC(=O)[C@H](CCC(=O)O)NC(=O)C(C)(C)NC(=O)[C@H](C)NC(=O)[C@H](C)NC(=O)[C@H](CCC(N)=O)NC(=O)[C@H](CCCCN)NC(=O)[C@H](CC(=O)O)NC(=O)[C@H](CC(C)C)NC(=O)[C@H](Cc1ccc(O)cc1)NC(=O)[C@@H](NC(=O)[C@H](CO)NC(=O)[C@H](Cc1ccc(O)cc1)NC(=O)[C@H](CC(=O)O)NC(=O)[C@H](CO)NC(=O)[C@@H](NC(=O)[C@H](Cc1ccccc1)NC(=O)[C@@H](NC(=O)CNC(=O)[C@H](CCC(=O)O)NC(=O)CSCC(=O)NCCN1CC(=O)NCC1=O)[C@@H](C)O)[C@@H](C)O)[C@@H](C)CC)C(C)C)C(N)=O)C(=O)O [Compound 25] | 86 | 1 to 10 | 86 | 1 to 10 | 1 to 10 | 1 to 10 | – | > 1000 | 43 | 43 |
